pIC50: −log10 of the molar value.
Biological target: T1, γ-secretase, Aβ(1-42) production, SH-SY5Y neuroblastoma cells overexpressing SPA4CT (Homo sapiens, UniProt P49768)
T1 construct: Human SH-SY5Y neuroblastoma cells overexpressing the direct γ-secretase substrate SPA4CT; endogenous in cells; host or cells: human SH-SY5Y neuroblastoma cells stably overexpressing the substrate SPA4CT, induced with sodium butyrate
Assay: Cell-Based γ-Secretase Assay, Aβ(42) detection
Details: overnight incubation, read-out: IC50 values for Aβ(1-42) inhibition
Description: Cell-Based γ-Secretase Assay
Human SH-SY5Y neuroblastoma cells overexpressing the direct γ-secretase substrate SPA4CT were induced with sodium butyrate (10 mM) for 4 hours prior to plating. Cells were plated at 35,000 cells/well/100 μl in 96-well plates in phenol red-free MEM/10% FBS, 50 mM HEPES, 1% Glutamine and incubated for 2 hrs at 37° C., 5% CO2.
Compounds for testing were diluted into Me2SO to give a ten point dose-response curve. Typically 10 μl of these diluted compounds in Me2SO were further diluted into 182 μl dilution buffer (phenol red-free MEM/10% FBS, 50 mM HEPES, 1% Glutamine) and 10 μl of each dilution was added to the cells in 96-well plates (yielding a final Me2SO concentration of 0.5%). Appropriate vehicle and inhibitor controls were used to determine the window of the assay.
After incubation overnight at 37° C., 5% CO2, 25 μl and 50 μl media were transferred into a standard Meso avidin-coated 96-well plate for detection of Aβ(40) and Aβ(42) peptides, respectively. 25 μl Meso Assay buffer (PBS, 2% BSA, 0.2% Tween-20) was added to the Aβ(40) wells followed by the addition of 25 μl of the respective antibody premixes to the wells:
Aβ(42) premix: 1 μg/ml ruthenylated G2-11 antibody, 4 μg/ml biotinylated 4G8 antibody diluted in Origen buffer
(Biotinylated 4G8 antibody supplied by Signet Pathology Ltd; G2-10 and G2-11 antibodies supplied by Chemicon)
After overnight incubation of the assay plates on a shaker at 4° C., the Meso Scale Sector 6000 Imager was calibrated according to the manufacturer's instructions. After washing the plates 3 times with 150 μl of PBS per well, 150 μl Meso Scale Discovery read buffer was added to each well and the plates were read on the Sector 6000 Imager according to the manufacturer's instructions.
LD50 and IC50 values for inhibition of Aβ(40) and Aβ(42) were calculated by nonlinear regression fit analysis using the appropriate software (eg. Excel fit). The total signal and the background were defined by the corresponding Me2SO and inhibitor controls.

Q: `Cc1ccc(C(C)(C)C)cc1Nc1ccnc(N2CCC(n3ccnn3)CC2)n1` [Example 15, N-(5-tert-butyl-2-methylphenyl)-2-[4-(1H-1,2,3-triazol-1-yl)piperidin-1-yl]pyrimidin-4-amine] was tested. Which pIC50 did it give?
A: 5.82 to 6.30

Q: How did the pIC50 turn out when `Cc1ccc(C(C)C)cc1Nc1ccnc(N2CCC(n3ccnn3)CC2)n1` [Example 12, N-(5-isopropyl-2-methylphenyl)-2-[4-(1H-1,2,3-triazol-1-yl)piperidin-1-yl]pyrimidin-4-amine] was run?
A: 5.22 to 5.52

Q: `CCOc1cc(C)c(Nc2nc(N3CCC(n4cc(C)nn4)CC3)ncc2Cl)cc1C(C)C` [Example 23, 5-chloro-N-(4-ethoxy-5-isopropyl-2-methylphenyl)-2-[4-(4-methyl-1H-1,2,3-triazol-1-yl)piperidin-1-yl]pyrimidin-4-amine] was tested. Which pIC50 did it give?
A: 5.52 to 5.82

Q: `CCOc1cc(C)c(Nc2nc(N3CCC(n4ccnc4)CC3)ncc2F)cc1C(C)C` [Example 22, N-(4-ethoxy-5-isopropyl-2-methylphenyl)-5-fluoro-2-[4-(1H-imidazol-1-yl)piperidin-1-yl]pyrimidin-4-amine] was tested. Which pIC50 did it give?
A: 5.82 to 6.30

Q: `CCN(CC)c1ccc(Nc2ccnc(N3CCC(n4ccnn4)CC3)n2)c(C)c1` [Example 8, N4,N4-diethyl-2-methyl-N1-{2-[4-(1H-1,2,3-triazol-1-yl)piperidin-1-yl]pyrimidin-4-yl}benzene-1,4-diamine] was tested. Which pIC50 did it give?
A: 5.22 to 5.52

Q: With `CCOc1cc(C)c(Nc2nc(N3CCC(n4ccnc4)CC3)ncc2Cl)cc1C(C)C` [Example 20, 5-chloro-N-(4-ethoxy-5-isopropyl-2-methylphenyl)-2-[4-(1H-imidazol-1-yl)piperidin-1-yl]pyrimidin-4-amine] as the compound, how does the pIC50 read?
A: 5.52 to 5.82

Q: With `CCOc1cc(C)c(Nc2cc(C(=O)OC)nc(N3CCC(n4ccnc4)CC3)n2)cc1C(C)C` [Example 24] as the compound, how does the pIC50 read?
A: > 6.30

Q: `CCN(CC)c1ccc(Nc2ccnc(N3CCC4(CCCN4)CC3)n2)c(C)c1` [Example 4, N1-[2-(1,8-diazaspiro[4.5]dec-8-yl)pyrimidin-4-yl]-N4,N4-diethyl-2-methylbenzene-1,4-diamine] was tested. Which pIC50 did it give?
A: 5.22 to 5.52

Q: `CCOc1cc(C)c(Nc2ccnc(N3CCC(n4ccnn4)CC3)n2)cc1C(C)C` [Example 10, N-(4-ethoxy-5-isopropyl-2-methylphenyl)-2-[4-(1H-1,2,3-triazol-1-yl)piperidin-1-yl]pyrimidin-4-amine] was tested. Which pIC50 did it give?
A: 5.82 to 6.30

Q: `Cc1ccc(C(C)(C)C)cc1Nc1ccnc(N2CCC(n3ccnc3)CC2)n1` [Example 16, N-(5-tert-butyl-2-methylphenyl)-2-[4-(1H-imidazol-1-yl)piperidin-1-yl]pyrimidin-4-amine] was tested. Which pIC50 did it give?
A: 5.82 to 6.30

Q: With `CCOc1cc(C)c(Nc2ccnc(N3CCC(n4ccnc4)CC3)n2)cc1C(C)C` [Example 11, N-(4-ethoxy-5-isopropyl-2-methylphenyl)-2-[4-(1H-1,2,3-imidazol-1-yl)piperidin-1-yl]pyrimidin-4-amine] as the compound, how does the pIC50 read?
A: > 6.30

Q: With `CCOc1cc(C)c(Nc2nc(N3CCC(n4ccnn4)CC3)ncc2F)cc1C(C)C` [Example 21, N-(4-ethoxy-5-isopropyl-2-methylphenyl)-5-fluoro-2-[4-(1H-1,2,3-triazol-1-yl)piperidin-1-yl]pyrimidin-4-amine] as the compound, how does the pIC50 read?
A: 5.82 to 6.30

Q: `Cc1ccc(C(C)(C)C)cc1Nc1nc(N2CCC(n3ccnn3)CC2)ncc1F` [Example 1, N-(5-tert-butyl-2-methylphenyl)-5-fluoro-2-[4-(1H-1,2,3-triazol-1-yl)piperidin-1-yl]pyrimidin-4-amine] was tested. Which pIC50 did it give?
A: 5.22 to 5.52

Q: `CCN(CC)c1ccc(Nc2ccnc(N3CCC(c4nnc(-c5ccccc5)o4)CC3)n2)c(C)c1` [Example 14, N4,N4-diethyl-2-methyl-N1-{2-[4-(5-phenyl-1,3,4-oxadiazol-2-yl)piperidin-1-yl]pyrimidin-4-yl}benzene-1,4-diamine] was tested. Which pIC50 did it give?
A: 5.52 to 5.82

Q: How did the pIC50 turn out when `Cc1ccc(C(C)(C)C)cc1Nc1nc(N2CCC(n3ccnc3)CC2)ncc1F` [Example 17, N-(5-tert-butyl-2-methylphenyl)-5-fluoro-2-[4-(1H-imidazol-1-yl)piperidin-1-yl]pyrimidin-4-amine] was run?
A: 5.22 to 5.52

Q: `CCOc1cc(C)c(Nc2nc(N3CCC(n4ccnn4)CC3)ncc2Cl)cc1C(C)C` [Example 19, 5-chloro-N-(4-ethoxy-5-isopropyl-2-methylphenyl)-2-[4-(1H-1,2,3-triazol-1-yl)piperidin-1-yl]pyrimidin-4-amine] was tested. Which pIC50 did it give?
A: 5.52 to 5.82

Q: With `CCOc1cc(C)c(Nc2cc(CO)nc(N3CCC(n4ccnc4)CC3)n2)cc1C(C)C` [Example 25, {6-[(4-ethoxy-5-isopropyl-2-methylphenyl)amino]-2-[4-(1H-imidazol-1-yl)piperidin-1-yl]pyrimidin-4-yl}methanol] as the compound, how does the pIC50 read?
A: > 6.30

Q: With `Cc1ccc(C(C)(C)C)cc1Nc1cc(S(C)(=O)=O)nc(N2CCC(n3ccnc3)CC2)n1` [Example 18, N-(5-tert-butyl-2-methylphenyl)-2-[4-(1H-imidazol-1-yl)piperidin-1-yl]-6-(methylsulfonyl)pyrimidin-4-amine] as the compound, how does the pIC50 read?
A: 5.22 to 5.52

Q: `CCN(CC)c1ccc(Nc2ccnc(N3CCC(n4ccnc4)CC3)n2)c(C)c1` [Example 7, N4,N4-diethyl-N1-{2-[4-(1H-imidazol-1-yl)piperidin-1-yl]pyrimidin-4-yl}-2-methylbenzene-1,4-diamine] was tested. Which pIC50 did it give?
A: 5.22 to 5.52

Reference: US8252803B2 (Merck Sharp & Dohme Corp., priority 2007, dated 2012)
